Source: patent publication US6380169B1, “Metal complex containing oligonucleoside cleavage compounds and therapies” (ISIS Pharmaceuticals, Inc., priority 1994, dated 2002)

Test system: 5′-capped RNA transcript (SEQ ID NO:1)
Experiment: Cleavage of 3′-end-labeled, 5′-capped RNA by Eu[THED]^3+ (single strand or hybridized to complementary 18-mer DNA oligomer)
Type: biochemical
Conditions: 1 mM Eu[THED]^3+
Method: In particular, the ability of Eu[THED]^3+ to hydrolyze 5′-capped RNA was established using a 3′-radiolabeled, 5′-capped RNA transcript.
A target oligonucleotide transcript having the following sequence was used (SEQ ID NO:1):
5′-capped RNA was made from the above amplicon using a T7 MEGAshortscript™ transcription kit (Ambion). 5′-capped transcripts were synthesized in a 20 μL reaction volume containing transcription buffer, T7 RNA polymerase, 7.5 mM rNTPs (except rGTP), 1.9 mM rGTP, 7.5 mM ^7MeGpppG and 200 nM DNA amplicon template. For synthesis of uncapped RNA, the capping dinucleotide was omitted from the reaction and rGTP concentration was increased to 7.5 mM. Reaction mixtures were incubated four hours at 37° C. After the transcription reaction was complete, template DNA was digested with 1 U DNase for 15 minutes at 37° C. Transcripts were purified from unincorporated nucleotides and truncated message by PAGE. The transcripts were visualized by UV back shadowing, and the RNA in the excised gel bands was purified using an RNaid™ kit (Bio 101) which is designed specifically for purification of RNA from polyacrylamide gels. As expected, the product of the 5′-capped RNA reaction contained a band that ran one base slower than the uncapped transcript on a 15% gel.
Transcripts were 3′ end-labeled with ^32p cordycepin triphosphate using terminal transferase. This enzyme prefers DNA as a substrate, but limited labeling of RNA can be achieved with the use of Co^++. As expected, 3′-end-labeling occurred, but the extent of labeling was low.
After preparing 3′-end-labeled, 5′-capped RNA, the ability of Eu[THED]^3+ to cleave (or “decapitate”) the cap structure of the RNA was tested. The reaction conditions were as follows: 1 mM Eu[THED]^3+, 75 μM capped RNA target (˜3 mM with respect to phosphate bonds), 20 mM Tris-HCl, pH 7.0, 100 mM NaCl and 0.2% SDS. A second set of samples further contained 100 μM of an 18-mer DNA oligomer which was complementary to the sequence immediately adjacent to the 5′-cap. […]

[1] = Hybrid (100 μM 18-mer DNA), time 0 min
[2] = Hybrid (100 μM 18-mer DNA), time 15 min
[3] = Hybrid (100 μM 18-mer DNA), time 30 min
[4] = Hybrid (100 μM 18-mer DNA), time 60 min
[5] = Hybrid (100 μM 18-mer DNA), time 120 min
[6] = Hybrid (100 μM 18-mer DNA), time 180 min

europium (III) complex of 1,4,7,10-tetrakis (2-hydroxyethyl)-1,4,7,10-tetraazacyclododecane [Eu[THED]]
Capped RNA counts/area [1]: 3975 counts/area
Decapitated RNA counts/area [1]: 1031 counts/area
Capped RNA counts/area [2]: 4073 counts/area
Decapitated RNA counts/area [2]: 923 counts/area
Capped RNA counts/area [3]: 4070 counts/area
Decapitated RNA counts/area [3]: 1073 counts/area
Capped RNA counts/area [4]: 3315 counts/area
Decapitated RNA counts/area [4]: 1583 counts/area
Capped RNA counts/area [5]: 3509 counts/area
Decapitated RNA counts/area [5]: 1946 counts/area
Capped RNA counts/area [6]: 2658 counts/area
Decapitated RNA counts/area [6]: 1934 counts/area
backbone cleavage of RNA (either data set (ssRNA and hybrid), 75 μM capped RNA): no evidence of backbone cleavage
Capped RNA counts/area (ssRNA, time 0 min): 3266 counts/area
Decapitated RNA counts/area (ssRNA, time 0 min): 1130 counts/area
Capped RNA counts/area (ssRNA, time 30 min): 3481 counts/area
Decapitated RNA counts/area (ssRNA, time 30 min): 1736 counts/area
Capped RNA counts/area (ssRNA, time 120 min): 2232 counts/area
Decapitated RNA counts/area (ssRNA, time 120 min): 2195 counts/area
Capped RNA counts/area (ssRNA, time 180 min): 1982 counts/area
Decapitated RNA counts/area (ssRNA, time 180 min): 1949 counts/area
